Results from patent US20100048696A1, “AGRICULTURAL DISEASE CONTROL AGENT” (Idemitsu Kosan Co., Ltd., priority 2007, published 2010).
Where two headings read alike, the source gives them in different places.

Assays:
[1] = test system: Erwinia carotovora var. cartovora; test: Basic test: cutting knife disinfection, blackleg pathogens; type: cell-based; details: knife immersed 5 seconds; for sterilization of blackleg pathogens (in words): 2 to 10 times solutions; for sterilization effect on blackleg pathogens (in words): 25 to 50 times solutions
[2] = test system: Clavibacter michiganense subsp. Nebraskense (ATCC27822); test: Basic test: cutting knife disinfection, ring rot pathogens; type: cell-based; details: knife immersed 5 seconds; for sterilization of ring rot pathogens (in words): 2 to 10 times solutions; for sterilization effect on ring rot pathogens (in words): 25 to 50 times solutions
[3] = test system: Erwinia carotovora var. cartovora; test: Test using potatoes: blackleg pathogenesis after cutting with disinfected knife; type: in vivo, potatoes Norin No. 1; details: for sterilization in test using potatoes (in words): 5 to 10 times solution; for Degree of pathogenesis: knife immersed 5 seconds at 5° C., average of 5 potatoes, about two months after seeding
Burkholderia plantarii = test: Material disinfection test; type: cell-based; details: 5 minutes
Burkholderia glumae = test: Material disinfection test; type: cell-based; details: 5 minutes
Ralstonia solanacearum = type: cell-based; details: 5 minutes
Pyricularia oryzae = type: cell-based; details: 5 minutes
[4] = test system: bacteria pathogens and filamentous fungi pathogens; type: cell-based
Erwinia chrysanthemi = test: Material disinfection test; type: cell-based; details: 5 minutes
Pythium ultimum = test: Material disinfection test; type: cell-based; details: 5 minutes
Fusarium oxysporum = test: Material disinfection test; type: cell-based; details: 5 minutes
Rhizoctonia solani = test: Material disinfection test; type: cell-based; details: 5 minutes
Botrytis cinerea = test: Material disinfection test; type: cell-based; details: 5 minutes

O=C1C=CC(=O)O1 [Maleic anhydride]
sterilization of blackleg pathogens (in words) [1]: complete sterilization
sterilization effect on blackleg pathogens (in words) [1]: high sterilization effect
sterilization of ring rot pathogens (in words) [2]: complete sterilization
sterilization effect on ring rot pathogens (in words) [2]: high sterilization effect
sterilization in test using potatoes (in words) [3]: complete sterilization
sterilization effect in test using potatoes (in words) ([3]; 50 times solution): high sterilization effect
Average value of viable bacteria counts on all materials examined (Burkholderia plantarii; 2 times solution sprayed): 0 cfu/ml
Average value of viable bacteria counts on all materials examined (Burkholderia plantarii; 5 times solution sprayed): 0 cfu/ml
Average value of viable bacteria counts on all materials examined (Burkholderia plantarii; 25 times solution sprayed): 0 cfu/ml
Average value of viable bacteria counts on all materials examined (Burkholderia plantarii; 50 times solution sprayed): 0 cfu/ml
Average value of viable bacteria counts on all materials examined (Burkholderia plantarii; 100 times solution sprayed): 0 cfu/ml
Average value of viable bacteria counts on all materials examined (Burkholderia plantarii; 200 times solution sprayed): 7 cfu/ml
Average value of viable bacteria counts on all materials examined (Burkholderia plantarii; 500 times solution sprayed): 1.0 × 10^2 cfu/ml
Average value of viable bacteria counts on all materials examined (Burkholderia glumae; 2 times solution sprayed): 0 cfu/ml
Average value of viable bacteria counts on all materials examined (Burkholderia glumae; 5 times solution sprayed): 0 cfu/ml
Average value of viable bacteria counts on all materials examined (Burkholderia glumae; 25 times solution sprayed): 0 cfu/ml
Average value of viable bacteria counts on all materials examined (Burkholderia glumae; 50 times solution sprayed): 0 cfu/ml
Average value of viable bacteria counts on all materials examined (Burkholderia glumae; 100 times solution sprayed): 0 cfu/ml
Average value of viable bacteria counts on all materials examined (Burkholderia glumae; 200 times solution sprayed): 69 cfu/ml
Average value of viable bacteria counts on all materials examined (Burkholderia glumae; 500 times solution sprayed): 2.0 × 10^2 cfu/ml
Average value of viable bacteria counts on all materials examined (Ralstonia solanacearum; 2 times solution sprayed): 0 cfu/ml
Average value of viable bacteria counts on all materials examined (Ralstonia solanacearum; 5 times solution sprayed): 0 cfu/ml
Average value of viable bacteria counts on all materials examined (Ralstonia solanacearum; 25 times solution sprayed): 0 cfu/ml
Average value of viable bacteria counts on all materials examined (Ralstonia solanacearum; 50 times solution sprayed): 0 cfu/ml
Average value of viable bacteria counts on all materials examined (Ralstonia solanacearum; 100 times solution sprayed): 0 cfu/ml
Average value of viable bacteria counts on all materials examined (Ralstonia solanacearum; 200 times solution sprayed): 4 cfu/ml
Average value of viable bacteria counts on all materials examined (Ralstonia solanacearum; 500 times solution sprayed): 58 cfu/ml
average value of viable filamentous fungi counts on all materials examined (Pyricularia oryzae; 2 times solution sprayed): 0 cfu/ml
average value of viable filamentous fungi counts on all materials examined (Pyricularia oryzae; 5 times solution sprayed): 0 cfu/ml
average value of viable filamentous fungi counts on all materials examined (Pyricularia oryzae; 25 times solution sprayed): 0 cfu/ml
average value of viable filamentous fungi counts on all materials examined (Pyricularia oryzae; 50 times solution sprayed): 0 cfu/ml
average value of viable filamentous fungi counts on all materials examined (Pyricularia oryzae; 100 times solution sprayed): 0 cfu/ml
average value of viable filamentous fungi counts on all materials examined (Pyricularia oryzae; 200 times solution sprayed): 32 cfu/ml
average value of viable filamentous fungi counts on all materials examined (Pyricularia oryzae; 500 times solution sprayed): 1.5 × 10^2 cfu/ml
sterilization in material disinfection test (in words) [4]: complete sterilization

O=C(O)/C=C\C(=O)O [Maleic acid]
sterilization of blackleg pathogens (in words) [1]: complete sterilization
sterilization effect on blackleg pathogens (in words) [1]: high sterilization effect
sterilization of ring rot pathogens (in words) [2]: complete sterilization
sterilization effect on ring rot pathogens (in words) [2]: high sterilization effect
Degree of pathogenesis ([3]; 5 times solution): 0
sterilization in test using potatoes (in words) [3]: complete sterilization
Degree of pathogenesis ([3]; 10 times solution): 0
sterilization effect in test using potatoes (in words) ([3]; 50 times solution): high sterilization effect
Degree of pathogenesis ([3]; 50 times solution): 3 (20 to less than 40%)
Average value of viable bacteria counts on all materials examined (Erwinia chrysanthemi; 2 times solution sprayed): 0 cfu/ml
Average value of viable bacteria counts on all materials examined (Erwinia chrysanthemi; 5 times solution sprayed): 0 cfu/ml
Average value of viable bacteria counts on all materials examined (Erwinia chrysanthemi; 25 times solution sprayed): 0 cfu/ml
Average value of viable bacteria counts on all materials examined (Erwinia chrysanthemi; 50 times solution sprayed): 0 cfu/ml
Average value of viable bacteria counts on all materials examined (Erwinia chrysanthemi; 100 times solution sprayed): 0 cfu/ml
Average value of viable bacteria counts on all materials examined (Erwinia chrysanthemi; 200 times solution sprayed): 53 cfu/ml
Average value of viable bacteria counts on all materials examined (Erwinia chrysanthemi; 500 times solution sprayed): 3.5 × 10^3 cfu/ml
Average value of viable bacteria counts on all materials examined (Burkholderia plantarii; 2 times solution sprayed): 0 cfu/ml
Average value of viable bacteria counts on all materials examined (Burkholderia plantarii; 5 times solution sprayed): 0 cfu/ml
Average value of viable bacteria counts on all materials examined (Burkholderia plantarii; 25 times solution sprayed): 0 cfu/ml
Average value of viable bacteria counts on all materials examined (Burkholderia plantarii; 50 times solution sprayed): 0 cfu/ml
Average value of viable bacteria counts on all materials examined (Burkholderia plantarii; 100 times solution sprayed): 0 cfu/ml
Average value of viable bacteria counts on all materials examined (Burkholderia plantarii; 200 times solution sprayed): 65 cfu/ml
Average value of viable bacteria counts on all materials examined (Burkholderia plantarii; 500 times solution sprayed): 1.5 × 10^2 cfu/ml
Average value of viable bacteria counts on all materials examined (Burkholderia glumae; 2 times solution sprayed): 0 cfu/ml
Average value of viable bacteria counts on all materials examined (Burkholderia glumae; 5 times solution sprayed): 0 cfu/ml
Average value of viable bacteria counts on all materials examined (Burkholderia glumae; 25 times solution sprayed): 0 cfu/ml
Average value of viable bacteria counts on all materials examined (Burkholderia glumae; 50 times solution sprayed): 0 cfu/ml
Average value of viable bacteria counts on all materials examined (Burkholderia glumae; 100 times solution sprayed): 0 cfu/ml
Average value of viable bacteria counts on all materials examined (Burkholderia glumae; 200 times solution sprayed): 93 cfu/ml
Average value of viable bacteria counts on all materials examined (Burkholderia glumae; 500 times solution sprayed): 5.0 × 10^3 cfu/ml
Average value of viable bacteria counts on all materials examined (Ralstonia solanacearum; 2 times solution sprayed): 0 cfu/ml
Average value of viable bacteria counts on all materials examined (Ralstonia solanacearum; 5 times solution sprayed): 0 cfu/ml
Average value of viable bacteria counts on all materials examined (Ralstonia solanacearum; 25 times solution sprayed): 0 cfu/ml
Average value of viable bacteria counts on all materials examined (Ralstonia solanacearum; 50 times solution sprayed): 0 cfu/ml
Average value of viable bacteria counts on all materials examined (Ralstonia solanacearum; 100 times solution sprayed): 0 cfu/ml
Average value of viable bacteria counts on all materials examined (Ralstonia solanacearum; 200 times solution sprayed): 18 cfu/ml
Average value of viable bacteria counts on all materials examined (Ralstonia solanacearum; 500 times solution sprayed): 1.0 × 10^2 cfu/ml
average value of viable filamentous fungi counts on all materials examined (Pythium ultimum; 2 times solution sprayed): 0 cfu/ml
average value of viable filamentous fungi counts on all materials examined (Pythium ultimum; 5 times solution sprayed): 0 cfu/ml
average value of viable filamentous fungi counts on all materials examined (Pythium ultimum; 25 times solution sprayed): 0 cfu/ml
average value of viable filamentous fungi counts on all materials examined (Pythium ultimum; 50 times solution sprayed): 0 cfu/ml
average value of viable filamentous fungi counts on all materials examined (Pythium ultimum; 100 times solution sprayed): 0 cfu/ml
average value of viable filamentous fungi counts on all materials examined (Pythium ultimum; 200 times solution sprayed): 73 cfu/ml
average value of viable filamentous fungi counts on all materials examined (Pythium ultimum; 500 times solution sprayed): 3.1 × 10^3 cfu/ml
average value of viable filamentous fungi counts on all materials examined (Fusarium oxysporum; 2 times solution sprayed): 0 cfu/ml
average value of viable filamentous fungi counts on all materials examined (Fusarium oxysporum; 5 times solution sprayed): 0 cfu/ml
average value of viable filamentous fungi counts on all materials examined (Fusarium oxysporum; 25 times solution sprayed): 0 cfu/ml
average value of viable filamentous fungi counts on all materials examined (Fusarium oxysporum; 50 times solution sprayed): 0 cfu/ml
average value of viable filamentous fungi counts on all materials examined (Fusarium oxysporum; 100 times solution sprayed): 0 cfu/ml
average value of viable filamentous fungi counts on all materials examined (Fusarium oxysporum; 200 times solution sprayed): 1.1 × 10^2 cfu/ml
average value of viable filamentous fungi counts on all materials examined (Fusarium oxysporum; 500 times solution sprayed): 7.8 × 10^2 cfu/ml
average value of viable filamentous fungi counts on all materials examined (Rhizoctonia solani; 2 times solution sprayed): 0 cfu/ml
average value of viable filamentous fungi counts on all materials examined (Rhizoctonia solani; 5 times solution sprayed): 0 cfu/ml
average value of viable filamentous fungi counts on all materials examined (Rhizoctonia solani; 25 times solution sprayed): 0 cfu/ml
average value of viable filamentous fungi counts on all materials examined (Rhizoctonia solani; 50 times solution sprayed): 0 cfu/ml
average value of viable filamentous fungi counts on all materials examined (Rhizoctonia solani; 100 times solution sprayed): 0 cfu/ml
average value of viable filamentous fungi counts on all materials examined (Rhizoctonia solani; 200 times solution sprayed): 2.5 × 10^2 cfu/ml
average value of viable filamentous fungi counts on all materials examined (Rhizoctonia solani; 500 times solution sprayed): 3.1 × 10^2 cfu/ml
average value of viable filamentous fungi counts on all materials examined (Pyricularia oryzae; 2 times solution sprayed): 0 cfu/ml
average value of viable filamentous fungi counts on all materials examined (Pyricularia oryzae; 5 times solution sprayed): 0 cfu/ml
average value of viable filamentous fungi counts on all materials examined (Pyricularia oryzae; 25 times solution sprayed): 0 cfu/ml
average value of viable filamentous fungi counts on all materials examined (Pyricularia oryzae; 50 times solution sprayed): 0 cfu/ml
average value of viable filamentous fungi counts on all materials examined (Pyricularia oryzae; 100 times solution sprayed): 0 cfu/ml
average value of viable filamentous fungi counts on all materials examined (Pyricularia oryzae; 200 times solution sprayed): 1.5 × 10^2 cfu/ml
average value of viable filamentous fungi counts on all materials examined (Pyricularia oryzae; 500 times solution sprayed): 2.7 × 10^2 cfu/ml
average value of viable filamentous fungi counts on all materials examined (Botrytis cinerea; 2 times solution sprayed): 0 cfu/ml
average value of viable filamentous fungi counts on all materials examined (Botrytis cinerea; 5 times solution sprayed): 0 cfu/ml
average value of viable filamentous fungi counts on all materials examined (Botrytis cinerea; 25 times solution sprayed): 0 cfu/ml
average value of viable filamentous fungi counts on all materials examined (Botrytis cinerea; 50 times solution sprayed): 0 cfu/ml
average value of viable filamentous fungi counts on all materials examined (Botrytis cinerea; 100 times solution sprayed): 0 cfu/ml
average value of viable filamentous fungi counts on all materials examined (Botrytis cinerea; 200 times solution sprayed): 1.7 × 10^2 cfu/ml
average value of viable filamentous fungi counts on all materials examined (Botrytis cinerea; 500 times solution sprayed): 1.0 × 10^2 cfu/ml
sterilization in material disinfection test (in words) [4]: complete sterilization
